Article PMC5345905 (Journal of the American Chemical Society, 2017)

Test system: Bacillus subtilis 168
Experiment: minimal inhibitory concentration
Format: cell-based
Settings: purified unique compounds, quantitative MIC

Question: With thiocillin [WT] as the substance, how does the MIC read?
Answer: 0.5 µg/mL
